This is an account of results in PMC4511006 (PLoS ONE, 2015).

Data set [1] concerns the target T1, C1 complex (C1s bound to C1q) (Homo sapiens, UniProt P02745+P02746+P02747).
T1 construct: partially purified C1 complex was added to wells at a constant amount
Description: Displacement (competition ELISA) assay of C1s from C1. In kind it is binding. To be noted: C1 0.05μg; CP from 0.145μM, PA from 1.45μM (10-fold molar excess). Here is the method: This was performed similarly to the competitive binding assay described by Hair et al., 2010 [8], with the following differences. Plates were coated with monoclonal antibody to C1q (Quidel) at 1:1000 overnight. In blocking buffer containing 2mM CaC1_2, partially purified C1 complex was added to wells at a constant amount (0.05μg) with decreasing amounts of either CP or PA, starting with concentrations for CP at 0.145μM and 1.45μM for PA. Detection of C1q and C1s was confirmed as described by Hair et al., 2010 [8].

The test system of data set [2] is classical pathway complement activity in factor B-depleted human serum. Description: Hemolysis assay using factor-B depleted serum and antibody-sensitized sheep erythrocytes. The note with it: 0.77mM peptide in factor B-depleted serum; triplicate, mean; standardized to water or DMSO. In kind it is biochemical. The protocol:
(§1) Soluble peptides were dissolved in water whereas insoluble peptides were reconstituted in DMSO. Results were standardized to water or DMSO, as appropriate.

The next data set can be described thus: Solubility in water. In kind it is physicochemical. Here is the method: as §1
Another data set concerns the target intact C1q. On the set-up: method as in PMID 22906481. To be noted: SPR; cited from earlier work.
A further data set relates to complement activation. To be noted: Wistar rats, delivered IV; cited from earlier work. From the text:
However, a serious limitation to these peptide analogs was their lack of solubility in aqueous solution. Given the aqueous solubility of PA-dPEG24, we set out to determine their efficacy in vivo.

The next data set concerns the target ficolin L (ficolin-2) (Homo sapiens, UniProt Q15485). Description: ELISA, biotinylated PA binding to ficolin L. To be noted: ficolin adsorbed at 10μg/mL, 0.4M NaCl in blocking buffer, compared with C1q. The protocol: (§2) Wild-type recombinant ficolins L (ficolin-2), H (ficolin-3), M (ficolin-1) were adsorbed to a microtiter plate at 10μg/mL. C1q (25nM) and BSA (30μg/mL) were immobilized as controls. Plates were blocked with 3% BSA/PBST for 2h. Biotinylated PA was added at various concentrations in blocking buffer containing 0.4M NaCl (to reduce nonspecific binding) and incubated for 1h at room temperature. Following washing, wells were probed neutravidin-HRP (1:4000) in blocking buffer for 1h and developed as described above. Absorbance values from wells not incubated with biotinylated PA were subtracted as background.

For the next data set, the target named is ficolin H (ficolin-3) (Homo sapiens, UniProt O75636). Description: ELISA, biotinylated PA binding to ficolin H. The note with it: ficolin adsorbed at 10μg/mL, 0.4M NaCl in blocking buffer, compared with C1q. The protocol: as §2
Sequence of ficolin H (ficolin-3) (O75636 24-299): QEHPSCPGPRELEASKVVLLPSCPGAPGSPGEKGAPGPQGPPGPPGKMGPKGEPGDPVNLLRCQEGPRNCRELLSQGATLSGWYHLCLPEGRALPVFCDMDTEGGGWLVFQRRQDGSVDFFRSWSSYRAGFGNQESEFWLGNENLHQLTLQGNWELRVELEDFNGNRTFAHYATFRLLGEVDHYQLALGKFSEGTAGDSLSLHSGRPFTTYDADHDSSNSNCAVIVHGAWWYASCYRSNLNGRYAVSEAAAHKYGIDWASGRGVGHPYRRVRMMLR
The next data set addresses ficolin M (ficolin-1) (Homo sapiens, UniProt O00602). Description: ELISA, biotinylated PA binding to ficolin M. To be noted: ficolin adsorbed at 10μg/mL, 0.4M NaCl in blocking buffer, compared with C1q. Here is the method:
as §2

For a further data set, the target named is T2, C1q (Homo sapiens, UniProt P02745+P02746+P02747).
T2 construct: Purified C1q (1μg) was added to wells
T2 sequence (P02745 23-245): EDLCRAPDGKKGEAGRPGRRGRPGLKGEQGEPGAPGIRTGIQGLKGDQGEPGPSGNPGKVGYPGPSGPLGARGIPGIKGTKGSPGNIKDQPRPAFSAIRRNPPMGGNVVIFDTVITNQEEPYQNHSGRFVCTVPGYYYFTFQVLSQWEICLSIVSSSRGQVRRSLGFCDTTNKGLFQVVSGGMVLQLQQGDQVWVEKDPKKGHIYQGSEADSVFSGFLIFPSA
T2 sequence (P02746 28-253): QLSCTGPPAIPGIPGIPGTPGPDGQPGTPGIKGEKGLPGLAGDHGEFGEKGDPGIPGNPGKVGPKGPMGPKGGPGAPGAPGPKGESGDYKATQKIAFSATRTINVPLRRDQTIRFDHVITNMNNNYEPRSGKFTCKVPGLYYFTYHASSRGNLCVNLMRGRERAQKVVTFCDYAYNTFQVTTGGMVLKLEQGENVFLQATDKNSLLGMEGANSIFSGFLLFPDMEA
T2 sequence (P02747 29-245): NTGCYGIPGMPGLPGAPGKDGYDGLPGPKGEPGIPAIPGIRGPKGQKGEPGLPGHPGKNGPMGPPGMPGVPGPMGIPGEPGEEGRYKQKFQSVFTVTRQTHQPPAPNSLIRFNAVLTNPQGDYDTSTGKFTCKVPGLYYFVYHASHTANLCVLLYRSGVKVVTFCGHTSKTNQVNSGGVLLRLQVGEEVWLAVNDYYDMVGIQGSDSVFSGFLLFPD
Nature of the data set: Cross-linking of biotinylated PA to C1q with BS3, SDS-PAGE/western blot. In kind it is binding. The note with it: C1q:biotinylated PA 1:25, BS3 20μM. The protocol: Purified C1q and biotinylated PA, at a ratio of 1:25, were incubated in conjugation buffer (0.1M Na2HPO4, 0.15M NaCl, pH 8.0) at room temperature for 2.5h. The crosslinker BS^3 (Bis(sulfosuccinimidlyl) suberate, Pierce) was added to a final concentration of 20μM and the mixture was incubated for 30 min. The reaction was quenched with 1M Tris-HCl (pH 7.5) to a final concentration of […] for 15 min. Reactions were analyzed via SDS-PAGE (NU-PAGE Bis/Tris 4–12% gradient gel) and western blot using a 1:1500 dilution of streptavidin IR 680 (LiCor) for 1h, 1:2000 dilution of goat anti-C1q IgG (CompTech) for 1h and 1:10,000 dilution of donkey anti-goat IgG IR 800 (Licor) for 1h. Gels were analyzed on an Odyssey Infrared Imaging System (Licor) and identical gels were visualized with bio-safe Coomassie stain (Bio-Rad) to confirm total protein content.

pKd: −log10 of the molar value. Ends that are not written are not given here.

Sequence of ficolin M (ficolin-1) (O00602 30-326): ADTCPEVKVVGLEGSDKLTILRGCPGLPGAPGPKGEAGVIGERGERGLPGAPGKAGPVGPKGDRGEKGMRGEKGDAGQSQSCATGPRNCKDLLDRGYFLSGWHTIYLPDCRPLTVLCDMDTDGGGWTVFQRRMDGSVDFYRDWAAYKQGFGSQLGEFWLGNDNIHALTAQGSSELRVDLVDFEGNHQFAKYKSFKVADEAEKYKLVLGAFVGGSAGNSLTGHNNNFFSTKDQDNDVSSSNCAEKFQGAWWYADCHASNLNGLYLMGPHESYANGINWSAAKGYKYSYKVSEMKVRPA
Sequence of ficolin L (ficolin-2) (Q15485 26-313): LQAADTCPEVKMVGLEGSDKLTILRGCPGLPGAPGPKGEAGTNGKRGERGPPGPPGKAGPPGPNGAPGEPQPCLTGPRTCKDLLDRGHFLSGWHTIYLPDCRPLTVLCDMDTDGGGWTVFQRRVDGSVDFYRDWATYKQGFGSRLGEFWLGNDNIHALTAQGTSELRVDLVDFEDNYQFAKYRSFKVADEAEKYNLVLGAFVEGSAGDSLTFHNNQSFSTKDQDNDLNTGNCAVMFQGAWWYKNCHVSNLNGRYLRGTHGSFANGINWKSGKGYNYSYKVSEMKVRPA
T1 sequence (P02745 23-245): as the sequence (P02745 23-245) above
T1 sequence (P02746 28-253): as the sequence (P02746 28-253) above
T1 sequence (P02747 29-245): as the sequence (P02747 29-245) above

As for `CC[C@H](C)[C@H](N)C(=O)N[C@@H](C)C(=O)N[C@@H](CC(C)C)C(=O)N[C@H](C(=O)N[C@@H](CC(C)C)C(=O)N[C@@H](CCC(=O)O)C(=O)N1CCC[C@H]1C(=O)N[C@H](C(=O)N[C@@H](CS)C(=O)N[C@@H](CS)C(=O)N[C@@H](CCC(N)=O)C(=O)N[C@@H](CCC(=O)O)C(=O)N[C@@H](CCCNC(=N)N)C(=O)N[C@@H](C)C(=O)N[C@@H](C)C(=O)O)[C@@H](C)CC)[C@@H](C)CC` [PA], the “displacement of C1s from C1q” value in data set [1] is reported as “did not demonstrate competitive displacement of C1s from C1q”. Further, in data set [2], the “Hemolysis (%)” value stood at 39.49%. Also, in the data set “Solubility in water”, the “solubility in water / aqueous solutions” value is “lack of solubility in aqueous solutions”. Also, the pKd on intact C1q was 7.48. The “inhibition of complement activation in vivo” value with complement activation was “able to inhibit complement activation in Wistar rats”.
Take “EALILEPICCQERAA [PA-I1E, glutamic acid substitution peptide of PA]”: the “Hemolysis (%)” value in data set [2] came out at 89.27%.
The same measure, in the same setting: the value for “IAEILEPICCQERAA [PA-L3E, glutamic acid substitution peptide of PA]” was 100.27%; that for “IALELEPICCQERAA [PA-I4E, glutamic acid substitution peptide of PA]” was 92.07%; that for “IALIEEPICCQERAA [PA-L5E, glutamic acid substitution peptide of PA]” was 94.33%.
Regarding “IALILEEICCQERAA [PA-P7E, glutamic acid substitution peptide of PA]”, the “Hemolysis (%)” value in data set [2] is on record as 96.10%.
On the same count and under the same terms, to “IALILEPECCQERAA [PA-I8E, glutamic acid substitution peptide of PA]” belongs 95.74%.
Same read-out and setting: to IALILEPICCEERAA [PA-Q11E] belongs 65.60%.
Same read-out and setting: to IALILEPICCQEEAA [PA-R13E] belongs 101.99%.
Take IALILEPICCQERAE [PA-A15E]: the “Hemolysis (%)” value in data set [2] came out at 93.13%.
On the same count and under the same terms, the value for IALILEPICCQERAR [PA-A15R] was 44.24%; that for IALILEPICCQEREA [PA-A14E] was 98.09%.
For IALILEPICCQERRA [PA-A14R], the “Hemolysis (%)” value in data set [2] came out at 88.65%.
The same measure, in the same setting: to IALILEPICCQRRAA [PA-E12R] belongs 95.83%; to IALILEPICCRERAA [PA-Q11R], 90.87%.
Still for that read-out and setting: to “IALILEPRCCQERAA [PA-I8R, arginine substitution peptide of PA]” belongs 62.32%; to “IALILERICCQERAA [PA-P7R, arginine substitution peptide of PA]”, 89.85%.
Still for that read-out and setting: the value for “IALILRPICCQERAA [PA-E6R, arginine substitution peptide of PA]” was 87.59%.
Regarding “IALIREPICCQERAA [PA-L5R, arginine substitution peptide of PA]”, the “Hemolysis (%)” value in data set [2] came out at 93.40%.
In the case of “IALRLEPICCQERAA [PA-I4R, arginine substitution peptide of PA]”, the “Hemolysis (%)” value in data set [2] is recorded as 43.71%.
Same read-out and setting: the value for “IARILEPICCQERAA [PA-L3R, arginine substitution peptide of PA]” was 80.45%; that for “IELILEPICCQERAA [PA-A2E, glutamic acid substitution peptide of PA]” was 92.24%.
On the same count and under the same terms, to “IRLILEPICCQERAA [PA-A2R, arginine substitution peptide of PA]” belongs 87.28%; to “RALILEPICCQERAA [PA-I1R, arginine substitution peptide of PA]”, 91.93%.
Take “biotinylated PA: C-terminally biotinylated PA peptide (IALILEPICCQERAA-biotin; cysteine pairing not given here)”: the “binding to ficolin L” value in the data set with ficolin L (ficolin-2) was “bound PA to the same degree as C1q”. Also, in the data set with ficolin H (ficolin-3), the “binding to ficolin H” value was “bound PA to the same degree as C1q”. Besides, the “binding to ficolin M” value with ficolin M (ficolin-1) was “bound PA to the same degree as C1q”. The “binding to C1q chains after cross-linking” value with C1q is “can bind monomeric chains of C1q along with the dimers A-B and C-C”.
